# Data from the supplement of paper PMC10307832.
# Columns and labels:
# Assay in all cases: relative viability (nuclei count vs DMSO), 5 days (fraction); higher = more cells survive
# [1] = system: COR-L 105
# In short: (§1)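 Cells from lung cancer lines were seeded into 1536-well plates and, one day later, dosed by pin tool. Treatments were either a single drug or a fixed dose of an anchor drug with five library-drug doses (not always all listed) in √10 steps. After 5 days, nuclei were stained in a one-step fixation (final 0.05% Triton X-100, 1% formaldehyde, 1 ug/ml Hoechst) and counted on 4× images, and relative viability is the treated-to-vehicle nuclei ratio, as the median of duplicate plates.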
# [2] = system: RERF-LC-KJ
# In short: as §1
# [3] = system: ChaGo-K-1
# In short: as §1
# [4] = system: NCI-H2126
# In short: as §1
# [5] = system: NCI-H647
# In short: as §1
# [6] = system: PC-14
# In short: as §1
# [7] = system: NCI-H23
# In short: as §1
# [8] = system: NCI-H1666
# In short: as §1
# [9] = system: 201T
# In short: as §1
# [10] = system: LC-2-ad
# In short: as §1
# [11] = system: H3255
# In short: as §1
# [12] = system: HCC-78
# In short: as §1
# [13] = system: NCI-H522
# In short: as §1
# [14] = system: HCC-827
# In short: as §1
# [15] = system: NCI-H661
# In short: as §1
# [16] = system: NCI-H2087
# In short: as §1
# [17] = system: NCI-H2347
# In short: as §1
# [18] = system: NCI-H322M
# In short: as §1
# [19] = system: NCI-H650
# In short: as §1
# [20] = system: LCLC-97TM1
# In short: as §1
# [21] = system: NCI-H1915
# In short: as §1
# [22] = system: NCI-H2405
# In short: as §1
# [23] = system: EPLC-272H
# In short: as §1
# [24] = system: NCI-H520
# In short: as §1
compound,measurement,setting,value
Clc1ccc(Nc2nnc(Cc3ccncc3)c3ccccc23)cc1 [Vatalanib] + Cc1nc(Nc2ncc(C(=O)Nc3c(C)cccc3Cl)s2)cc(N2CCN(CCO)CC2)n1 [Dasatinib] (partner 0.075 µM),relative viability,[1]; first compound 0.04 µM,0.294
same,relative viability,[1]; first compound 0.1265 µM,0.32
same,relative viability,[1]; first compound 0.4 µM,0.404
same,relative viability,[1]; first compound 1.265 µM,0.316
same,relative viability,[1]; first compound 4 µM,0.326
same,relative viability,[2]; first compound 0.04 µM,0.851
same,relative viability,[2]; first compound 0.1265 µM,0.828
same,relative viability,[2]; first compound 0.4 µM,0.809
same,relative viability,[2]; first compound 1.265 µM,0.623
same,relative viability,[2]; first compound 4 µM,0.593
same,relative viability,[3]; first compound 0.04 µM,0.578
same,relative viability,[3]; first compound 0.1265 µM,0.541
same,relative viability,[3]; first compound 0.4 µM,0.582
same,relative viability,[3]; first compound 1.265 µM,0.569
same,relative viability,[3]; first compound 4 µM,0.586
same,relative viability,[4]; first compound 0.04 µM,0.609
same,relative viability,[4]; first compound 0.1265 µM,0.571
same,relative viability,[4]; first compound 0.4 µM,0.585
same,relative viability,[4]; first compound 1.265 µM,0.42
same,relative viability,[4]; first compound 4 µM,0.503
same,relative viability,[5]; first compound 0.04 µM,0.205
same,relative viability,[5]; first compound 0.1265 µM,0.184
same,relative viability,[5]; first compound 0.4 µM,0.212
same,relative viability,[5]; first compound 1.265 µM,0.191
same,relative viability,[5]; first compound 4 µM,0.148
same,relative viability,[6]; first compound 0.04 µM,0.318
same,relative viability,[6]; first compound 0.1265 µM,0.248
same,relative viability,[6]; first compound 0.4 µM,0.34
same,relative viability,[6]; first compound 1.265 µM,0.244
same,relative viability,[6]; first compound 4 µM,0.245
same,relative viability,[7]; first compound 0.04 µM,0.792
same,relative viability,[7]; first compound 0.1265 µM,0.73
same,relative viability,[7]; first compound 0.4 µM,0.929
same,relative viability,[7]; first compound 1.265 µM,0.772
same,relative viability,[7]; first compound 4 µM,0.667
same,relative viability,[8]; first compound 0.04 µM,0.805
same,relative viability,[8]; first compound 0.1265 µM,0.714
same,relative viability,[8]; first compound 0.4 µM,0.883
same,relative viability,[8]; first compound 1.265 µM,0.791
same,relative viability,[8]; first compound 4 µM,0.758
same,relative viability,[9]; first compound 0.04 µM,0.576
same,relative viability,[9]; first compound 0.1265 µM,0.564
same,relative viability,[9]; first compound 0.4 µM,0.594
same,relative viability,[9]; first compound 1.265 µM,0.555
same,relative viability,[9]; first compound 4 µM,0.579
same,relative viability,[10]; first compound 0.04 µM,0.739
same,relative viability,[10]; first compound 0.1265 µM,0.492
same,relative viability,[10]; first compound 1.265 µM,0.507
same,relative viability,[10]; first compound 4 µM,0.536
same,relative viability,[11]; first compound 0.04 µM,0.316
same,relative viability,[11]; first compound 0.1265 µM,0.385
same,relative viability,[11]; first compound 0.4 µM,0.311
same,relative viability,[11]; first compound 1.265 µM,0.28
same,relative viability,[11]; first compound 4 µM,0.335
same,relative viability,[12]; first compound 0.04 µM,0.368
same,relative viability,[12]; first compound 0.1265 µM,0.325
same,relative viability,[12]; first compound 0.4 µM,0.333
same,relative viability,[12]; first compound 1.265 µM,0.368
same,relative viability,[12]; first compound 4 µM,0.383
same,relative viability,[13]; first compound 0.04 µM,0.843
same,relative viability,[13]; first compound 0.1265 µM,0.857
same,relative viability,[13]; first compound 0.4 µM,0.912
same,relative viability,[13]; first compound 1.265 µM,1.04
same,relative viability,[13]; first compound 4 µM,0.828
same,relative viability,[14]; first compound 0.04 µM,0.375
same,relative viability,[14]; first compound 0.1265 µM,0.31
same,relative viability,[14]; first compound 0.4 µM,0.166
same,relative viability,[14]; first compound 1.265 µM,0.326
same,relative viability,[14]; first compound 4 µM,0.275
same,relative viability,[15]; first compound 0.04 µM,0.935
same,relative viability,[15]; first compound 0.1265 µM,0.854
same,relative viability,[15]; first compound 0.4 µM,1.06
same,relative viability,[15]; first compound 1.265 µM,0.853
same,relative viability,[15]; first compound 4 µM,0.804
same,relative viability,[16]; first compound 0.04 µM,0.937
same,relative viability,[16]; first compound 0.1265 µM,0.769
same,relative viability,[16]; first compound 0.4 µM,1.09
same,relative viability,[16]; first compound 1.265 µM,0.808
same,relative viability,[16]; first compound 4 µM,0.884
same,relative viability,[17]; first compound 0.04 µM,0.295
same,relative viability,[17]; first compound 0.1265 µM,0.352
same,relative viability,[17]; first compound 0.4 µM,0.342
same,relative viability,[17]; first compound 1.265 µM,0.28
same,relative viability,[17]; first compound 4 µM,0.385
same,relative viability,[18]; first compound 0.04 µM,0.248
same,relative viability,[18]; first compound 0.1265 µM,0.238
same,relative viability,[18]; first compound 0.4 µM,0.256
same,relative viability,[18]; first compound 1.265 µM,0.247
same,relative viability,[18]; first compound 4 µM,0.256
same,relative viability,[19]; first compound 0.04 µM,0.434
same,relative viability,[19]; first compound 0.1265 µM,0.448
same,relative viability,[19]; first compound 1.265 µM,0.399
same,relative viability,[19]; first compound 4 µM,0.434
same,relative viability,[20]; first compound 0.04 µM,0.994
same,relative viability,[20]; first compound 0.1265 µM,0.621
same,relative viability,[20]; first compound 0.4 µM,0.839
same,relative viability,[20]; first compound 1.265 µM,0.775
same,relative viability,[20]; first compound 4 µM,0.871
same,relative viability,[21]; first compound 0.04 µM,0.322
same,relative viability,[21]; first compound 0.1265 µM,0.321
same,relative viability,[21]; first compound 0.4 µM,0.339
same,relative viability,[21]; first compound 1.265 µM,0.279
same,relative viability,[21]; first compound 4 µM,0.349
same,relative viability,[22]; first compound 0.04 µM,0.226
same,relative viability,[22]; first compound 0.1265 µM,0.195
same,relative viability,[22]; first compound 1.265 µM,0.197
same,relative viability,[22]; first compound 4 µM,0.203
same,relative viability,[23]; first compound 0.04 µM,0.441
same,relative viability,[23]; first compound 0.1265 µM,0.347
same,relative viability,[23]; first compound 0.4 µM,0.449
same,relative viability,[23]; first compound 1.265 µM,0.36
same,relative viability,[23]; first compound 4 µM,0.481
same,relative viability,[24]; first compound 0.04 µM,0.205
same,relative viability,[24]; first compound 0.1265 µM,0.202
same,relative viability,[24]; first compound 0.4 µM,0.218
same,relative viability,[24]; first compound 1.265 µM,0.161
same,relative viability,[24]; first compound 4 µM,0.126
